Assay [1] deals with T1, cloned human κ opioid receptors (Homo sapiens, UniProt P41145).
T1 construct: expressed in transfected cells; host or cells: CHO cells
In words: [3H]diprenorphine receptor binding, κ opioid receptor. The following applies: inhibition of [3H]diprenorphine binding; Cheng-Prusoff correction; read-out: affinity (expressed as Ki value), κ opioid receptor. The method, then: (§1) The potencies of the final compounds found in Examples 1A-9D were determined by testing the ability of a range of concentrations of each compound to inhibit the binding of the non-selective opioid antagonist, [^3H]diprenorphine, to the cloned human μ, ? and δ opioid receptors, expressed in separate cell lines. IC50 values were obtained by nonlinear analysis of the data using GraphPad Prism version 3.00 for Windows (GraphPad Software, San Diego). Ki values were obtained by Cheng-Prusoff corrections of IC50 values.
(§2) The receptor binding method (DeHaven and DeHaven-Hudkins, 1998) was a modification of the method of Raynor et al. (1994). […] The filters were rinsed 4 times with 1 mL of cold 50 mM Tris HCl, pH 7.8 and radioactivity remaining on the filters determined by scintillation spectroscopy. Nonspecific binding was determined by the minimum values of the titration curves and was confirmed by separate assay wells containing 10 μM naloxone. Ki values were determined by Cheng-Prusoff corrections of IC50 values derived from nonlinear regression fits of 12 point titration curves using GraphPad Prism® version 3.00 for Windows (GraphPad Software, San Diego, Calif.).
(§3) To determine the equilibrium dissociation constant for the inhibitors (Ki), radioligand bound (cpm) in the presence of various concentrations of test compounds was measured. […]

For assay [2], the target named is T2, cloned human δ opioid receptors (Homo sapiens, UniProt P41143).
T2 construct: expressed in transfected cells; host or cells: CHO cells
T2 sequence (P41143 whole entry): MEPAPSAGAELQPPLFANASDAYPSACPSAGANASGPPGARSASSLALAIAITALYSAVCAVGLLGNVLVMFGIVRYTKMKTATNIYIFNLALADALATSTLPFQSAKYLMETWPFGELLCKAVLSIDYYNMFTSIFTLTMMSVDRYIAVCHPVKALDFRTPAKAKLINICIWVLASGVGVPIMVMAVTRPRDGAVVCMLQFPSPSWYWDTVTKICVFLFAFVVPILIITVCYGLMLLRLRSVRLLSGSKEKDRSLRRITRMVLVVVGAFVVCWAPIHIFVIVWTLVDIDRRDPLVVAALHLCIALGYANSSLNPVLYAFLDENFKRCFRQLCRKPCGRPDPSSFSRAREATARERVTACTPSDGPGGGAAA
In words: Receptor-mediated [35S]GTPγS binding, δ opioid receptor. The following applies: stimulation of [35S]GTPγS binding to membranes containing cloned human δ opioid receptors; read-out: in vitro δ agonist activity EC50. It is filed as biochemical. The protocol:
The potency and efficacy of compounds at each of the receptors are assessed by modifications of the methods of Selley, et al., 1997 and Traynor and Nahorski, 1995 using receptor-mediated [S]GTPγS binding in the same membrane preparations used to measure receptor binding. Assays are carried out in 96-well FlashPlates® (Perkin Elmer Life Sciences, Inc, Boston, Mass.). Membranes prepared from CHO cells expressing the appropriate receptor (50-100 μg of protein) are added to assay mixtures containing agonist with or without antagonists, 100 pM [^35S]GTPγS (approx. 100,000 dpm), 3.0 μM GDP, 75 mM NaCl, 15 mM MgCl2, 1.0 mM ethylene glycol-bis(β-aminoethyl ether)-N,N,N′,N′-tetracetic acid, 1.1 mM dithiothreitol, 10 μg/mL leupeptin, 10 μg/mL pepstatin A, 200 μg/mL bacitracin, and 0.5 μg/mL aprotinin in 50 mM Tris-HCl buffer, pH 7.8. After incubation at room temperature for one hour, the plates are sealed, centrifuged at 800×g in a swinging bucket rotor for 5 minutes and bound radioactivity determined with a TopCount microplate scintillation counter (Packard Instrument Co., Meriden, Conn.).
EC50 values for agonists are determined from nonlinear regression fits of 8- or 12-point titration curves to the 4-parameter equation for a sigmoidal dose-response with a slope factor of 1.0 using GraphPad Prism® version 3.00 for Windows (GraphPad Software, San Diego, Calif.).
A general note: GTPγS resists hydrolysis and so accumulates on activated G proteins.

In assay [3] the target is T3, cloned human μ opioid receptors (Homo sapiens, UniProt P35372).
T3 construct: expressed in transfected cells; host or cells: CHO cells
T3 sequence (P35372 whole entry): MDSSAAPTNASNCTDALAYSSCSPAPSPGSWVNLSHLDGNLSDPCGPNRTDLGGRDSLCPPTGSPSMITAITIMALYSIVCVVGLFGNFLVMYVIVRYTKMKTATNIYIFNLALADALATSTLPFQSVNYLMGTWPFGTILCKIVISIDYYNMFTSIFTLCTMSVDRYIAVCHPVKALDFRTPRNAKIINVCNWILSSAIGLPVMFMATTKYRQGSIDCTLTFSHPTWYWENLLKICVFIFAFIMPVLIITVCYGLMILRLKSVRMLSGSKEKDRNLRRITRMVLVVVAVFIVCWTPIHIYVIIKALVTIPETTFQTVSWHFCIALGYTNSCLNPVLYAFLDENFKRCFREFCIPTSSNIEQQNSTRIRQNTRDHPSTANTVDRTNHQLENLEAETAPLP
The assay can be described thus: [3H]diprenorphine receptor binding, μ opioid receptor. The following applies: inhibition of [3H]diprenorphine binding; Cheng-Prusoff correction; read-out: affinity (expressed as Ki value), μ opioid receptor. The protocol: as §1, §2, §3

Assay [4] deals with T2, cloned human δ opioid receptors. The assay can be described thus: [3H]diprenorphine receptor binding, δ opioid receptor. The conditions noted are these: inhibition of [3H]diprenorphine binding; Cheng-Prusoff correction; read-out: affinity (expressed as Ki value), δ opioid receptor. The method, then:
as §1, §2, §3

We go through 1 compound from patent publication US7576207B2, “Spirocyclic heterocyclic derivatives and methods of their use” (Adolor Corporation, priority 2006, dated 2009).

Structures are written as SMILES.

T1 sequence (P41145 whole entry): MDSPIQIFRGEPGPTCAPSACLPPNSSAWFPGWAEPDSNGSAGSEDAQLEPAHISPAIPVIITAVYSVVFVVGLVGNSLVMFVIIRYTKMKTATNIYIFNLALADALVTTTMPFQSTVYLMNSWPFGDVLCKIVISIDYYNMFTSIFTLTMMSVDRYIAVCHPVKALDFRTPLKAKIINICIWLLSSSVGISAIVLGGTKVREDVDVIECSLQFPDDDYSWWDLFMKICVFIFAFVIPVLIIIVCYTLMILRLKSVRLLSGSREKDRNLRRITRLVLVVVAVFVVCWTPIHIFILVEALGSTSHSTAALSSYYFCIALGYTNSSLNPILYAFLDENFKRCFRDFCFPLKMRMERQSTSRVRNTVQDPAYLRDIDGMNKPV

Regarding `CCNC(=O)c1ccc2c(c1)C(CCCCC(=O)N(CC)CC)CC1(CCNCC1)C2` (stereo not shown) [Example 9D, 4-[(4-N,N-diethylaminocarbonyl)butyl]-spiro[6-N-ethylcarbonyl-1,2,3,4-tetrahydronaphthalene-2,4′-piperidine]], the Ki in assay [1] was 696 nM; in assay [3], 632 nM; in assay [4], 0.47 nM. For the same compound, in assay [2], the EC50 was 8.1 nM.

A word on the Ki: it is a measure of affinity in units of concentration, obtained from inhibition or displacement. The EC50 is the concentration at which the effect is half-maximal.
